{"source": "patent US12653776B2", "about": "“Methods of treatment of cancer by continuous infusion of coenzyme Q10” (priority 2013, dated 2026)", "key": {"[1]": {"system": "AML or ALL", "assay": "Phase 1a/b study, 18 day continuous infusion in relapsed/refractory AML or ALL", "settings": "at the end of the study", "method": "This study is conducted in the inpatient setting for the first 10 patients enrolled on monotherapy to closely monitor the coagulation profile, gain experience and collect safety data during the first full cycle of therapy (21 days) and at least 30 days of post-dosing follow-up Platelet count and coagulation parameters are obtained every day in the inpatient setting. […] Treatment may continue in either the inpatient and/or outpatient setting for subsequent patients enrolled on study. Platelet count and coagulation are monitored at least 3 times/week in the outpatient setting and daily in the inpatient setting.\nEach cycle of monotherapy is 21 days in length. […] Each cycle of combination therapy is 28 days in length. […] Patients who experience a DLT during cycle 1 of monotherapy or cycle 1 of combination therapy are discontinued.\nOn Day 1 of each cycle (i.e., Monday) the dose consists of an accelerated rate of infusion of 25% of the total dose volume over 1 hour with the remaining 75% of the dose volume infused over 23 hours. Subsequent daily doses (Days 2 through 18) are infused uniformly over 24 hours (no accelerated rate in the first hour). […] The principal investigator will consult with the Medical Monitor and the Chair of the DSMB to determine the appropriate dose level for each patient."}, "[2]": {"system": "LnCaP human prostate adenocarcinoma cells", "assay": "Prostate cancer (LnCaP) mouse model, survival", "assay_type": "in vivo, immunocompromised mice", "experimental": "The observed improvement in animal cohorts administered coenzyme Q10 as a continuous infusion was repeated in other animal models of cancer. For example. […] LnCaP human prostate adenocarcinoma cells were injected into immunocompromised mice. Coenzyme Q10 was administered using two different dosing regimens. One cohort was administered a total dose of 75 mg/kg body weight per day by dosing 25 mg/kg body weight every 8 hours (multiple bolus regimen). In a second cohort, an infusion pump was surgically installed in the animals to facilitate continuous infusion of coenzyme Q10 at a total dose of 75 mg/kg body weight per day. Treatment was continued throughout the entire duration of the study."}, "[3]": {"system": "cancer cell lines HT-29, A549, Hep3B, MDA-MB231, SkBr-3, MCF7, MiaPaCa-2, SKOV-3, PC-3", "assay": "Cancer cell line viability in vitro", "assay_type": "cell-based", "settings": "100 μM coenzyme Q10; evident as early as 24 hours, increased progressively between 48 and 72 hours; all cell lines tested", "experimental": "Various cancer cell lines were treated with coenzyme Q10 at 100 μM concentration to determine the effect on cancer cell viability. The cancer cell lines tested were HT-29 (colon), A549 (lung), Hep3B (liver), MDA-MB231 (breast), SkBr-3 (breast), MCF7 (breast), MiaPaCa-2 (pancreas), SKOV-3 (ovary), and PC-3 (prostate). Cell viability was measured between 24 and 72 hours. […] For example. […] The text at the bottom of the graph in FIG. 6 represents the gene mutation and mutation rate for each cell line. For example, the HT-29 cell line contains the APC mutation with a mutation rate of 126."}, "[4]": {"system": "liver chloromas (MIA C51 clone)", "assay": "Liver chloroma rat model, survival", "assay_type": "in vivo, rats", "text": "The effect of dosing schedule of coenzyme Q10 was also investigated in rats bearing liver or lung chloromas. Rats were transplanted with liver or lung clones of malignant chloromas derived from a stable myelogenous leukemia (chloroleukemia) cell line, MIA C51 (see. e.g., Jimenez and Yunis (1987) Science 238: 1278-1280). The clones have been selected to home to and form tumors in the liver or lungs, respectively. Rats were randomized to receive either no treatment, injection 3 times a day with 40 mg/mL (4%) coenzyme Q10, or continuous infusion of 40 mg/mL (4%) coenzyme Q10 via an implanted pump, to deliver for each regimen a total dose of 50 mg/kg body weight per day. […] For example, at Day 189 in the liver chloroma model, 45 of 50 rats were alive in the continuous infusion treatment group compared with 26 of 50 rats alive in the injection treatment group. All control animals were dead at Day 30."}, "[5]": {"system": "chloroleukemia (MIA C51)", "settings": "IP"}, "[6]": {"system": "acute myeloid leukemia (KG1) cells", "assay": "Acute myeloid leukemia (KG1) mouse model, survival", "assay_type": "in vivo, mice", "experimental": "Human acute erythro-leukemia (K562) and acute myeloid leukemia (KG1) cells (1×10^6) were injected intraperitoneally in immune-compromised mice. Engraftment was confirmed by complete blood counts, presence of anemia, and clinical assessment of animal behavior.\nThe mice (total n=120 for each model respectively) were randomized into four (n=30/group) treatment groups. Each treatment regimen was administered in a four week cycle with three weeks of treatment, one week off: • 1. Untreated (control) • 2. Coenzyme Q10 (4%, administered at 75 mg/kg, once/day by continuous infusion) • 3. Chemotherapy (cytarabine/AraC 25 mg/kg, 5×/week; and adriamycin/daunorubicin 5 mg/kg; 1×/wk) • 4. Coenzyme Q10 (4%, administered at 75 mg/kg, once/day by continuous infusion)+chemotherapy (cytarabine/AraC 25 mg/kg, 5×/week; and adriamycin/daunorubicin 5 mg/kg; 1×/wk)\nAll dosings were intravenous and followed a protocol of 3 week treatment followed by 1 week rest. Leukemia was monitored by pallor and blood smears, and hone marrow smears were performed post-mortem for analysis using Wright's stain. Survival results from the study of mice with acute erythroleukemia are show in FIG. 5. Day 1 is the first day of treatment with coenzyme Q10 and/or chemotherapy."}}}
{"substance": "coenzyme Q10", "values": [{"measurement": "outcomes by standard criteria", "setting": "[1]; e.g., decreased tumor burden", "value": "clinically relevant outcomes"}, {"measurement": "adverse events with increased infusion duration", "setting": "[1]; vs four hour infusion at higher rate", "value": "decrease adverse events"}, {"measurement": "survival rate", "setting": "[2]; continuous infusion 75 mg/kg body weight per day vs multiple bolus regimen", "value": "even higher survival rate"}, {"measurement": "survival rate", "setting": "[2]; multiple bolus regimen, total 75 mg/kg body weight per day (25 mg/kg every 8 hours)", "value": "higher survival rate than the untreated control"}, {"measurement": "cell viability", "setting": "[3]", "value": "decrease in cell viability"}, {"measurement": "survival compared to control", "setting": "[4]; both continuous infusion and injection 3 times a day, 50 mg/kg per day", "value": "significantly prolonged survival"}, {"measurement": "rats alive at Day 189", "setting": "[4]; continuous infusion of 40 mg/mL (4%) coenzyme Q10, 50 mg/kg body weight per day", "value": "45 of 50"}, {"measurement": "effectiveness of continuous infusion regimen", "setting": "[4]; continuous infusion vs injection 3 times a day, 50 mg/kg per day", "value": "much more effective than the injection regimen"}, {"measurement": "rats alive at Day 189", "setting": "[4]; injection 3 times a day of 40 mg/mL (4%) coenzyme Q10, total 50 mg/kg body weight per day", "value": "26 of 50"}, {"measurement": "survival in animals with metastasis to the lungs and liver", "setting": "[5]; 50 mg/kg/day", "value": "significant increase in survival"}, {"measurement": "limb paralysis (paraplegia due to brain metastasis)", "setting": "[5]; (St) mg/kg/day", "value": "complete resolution of limb paralysis"}, {"measurement": "survival", "setting": "[6]; coenzyme Q10 75 mg/kg/day continuous infusion + chemotherapy (cytarabine + daunorubicin) vs other groups incl. chemotherapy alone, p<0.00001", "value": "significant increase in survival"}, {"measurement": "survival", "setting": "[6]; coenzyme Q10 alone (4%, 75 mg/kg once/day by continuous infusion) vs chemotherapy (cytarabine + daunorubicin)", "value": "improved survival compared to chemotherapy"}]}
